One compound from BindingDB's records for doi:10.1021/acsmedchemlett.8b00532 (Sapienza University of Rome, 2019) can be followed below.

This test is described as follows: Inhibition of NHERF1 in human SW620 cells expressing NHERF1 assessed as inhibition cell growth incubated for 72 hrs by MTT assay.

On to `Cc1cc([N+](=O)[O-])ccc1NS(=O)(=O)c1cc(Cl)ccc1Cl`, for which the half-inhibitory concentration (IC50) turned out to be 19 µM.
